Values of other authors as cited in the CATMoS acute toxicity set (Mansouri et al. 2021).
“And” between values parts separate entries of the source, which are not always exact repeats. Identical values can stand only once.

test: rat acute oral toxicity; details: in vivo

Compound	LD50
CC=C(CC)C(=O)NC(N)=O	2500 mg/kg
Cc1occc(=O)c1O	1410 mg/kg
CN(C)C(=S)N(C)C	920 mg/kg
CN(C)CCCCCNc1c2ccccc2nc2cccc([N+](=O)[O-])c12	63.3 mg/kg
N#CC(Cl)=C(Cl)Cl	62.5 mg/kg
CCOC(=O)c1ccc(N)cc1	3040 mg/kg
BrC(Br)C(Br)Br	1200 mg/kg
CNC(=O)Oc1cc(C)c(SC)c(C)c1	20 mg/kg
C=C(Cl)C(OC(C)=O)OC(C)=O	320 mg/kg
CC(C)C12C=CC(C)(CC1)OO2 (stereo not given)	200 mg/kg
COc1ccc2c(c1)CCCC2=O	300 mg/kg
Cc1c(F)c(F)c2nc(C(F)(F)F)[nH]c2c1F	3.94 mg/kg
COc1cc(C(=O)NC2CCCNC2)cc(OC)c1OC (stereo not given)	2100 mg/kg
CC(C=CC=C(C)C=CC(=O)C1(C)CC(O)CC1(C)C)=CC=CC=C(C)C=CC=C(C)C=CC1=C(C)CC(O)CC1(C)C (stereo not given)	11200 mg/kg
CCOP(=S)(OCC)N1C(=O)c2ccccc2C1=O	4930 mg/kg
COc1c(OP(=O)(OC(C)C)OC(C)C)cnn(C)c1=O	1.9 mg/kg
CCOC(=O)c1ncn2c1CN(C)C(=O)c1cc(F)ccc1-2	4200 mg/kg
CC1(C)CCC(NC(=O)[C@@H](N)CCC(=O)O)CC1	1430 mg/kg
CCCCC(CC)COC(C[n+]1ccccc1)c1cccc(C2CCCCC2)c1 (stereo not given)	250 mg/kg
O=C=NCC1CCC(CN=C=O)CC1 (stereo not given)	1600 mg/kg
CC(C[N+](C)(C)C)OC(N)=O (stereo not given)	1500 mg/kg
COCc1cc(C(C)(C)C)c(O)c(C(C)(C)C)c1	10600 mg/kg
Cc1ncc2coc(OCCO)c2c1O	2200 mg/kg
CCOCCOCC(C)O (stereo not given)	9330 mg/kg
CN(C)C(=S)SSC(=S)NCCNC(=S)SSC(=S)N(C)C	3000 mg/kg

Compound	LD50
CCCCC(CC)COC(=O)CS (stereo not given)	303 mg/kg
CCCCCCCCCCCCCOCCOCCOCCOCCOCCOCCO	1400 mg/kg
CNC(=O)ON=C1CSC(C)CS1 (stereo not given)	5.1 mg/kg
c1ccc(CNc2ncnc3c2NCN3)cc1	2100 mg/kg
CC1CS1 (stereo not given)	254 mg/kg
CC1(C)C(C=NOCc2ccco2)C1C(=O)OC(C#N)c1cccc(Oc2ccccc2)c1 (stereo not given)	91 mg/kg
C=S	365 mg/kg
CCC(CC(C)CC)=NO (stereo not given)	3800 mg/kg
Fc1ccc(Br)c(F)c1	300 mg/kg
[N-]=[N+]=CC(=O)OC[C@H](N)C(=O)O	170 mg/kg
C=C(OP(=O)(OC)OC)c1ccc(Cl)cc1Cl	2350 mg/kg
CCOC(=O)/C=C1/SC(N2CCCCC2)C(=O)N1C (stereo not given)	10200 mg/kg
O=C1CCc2cc(C(=O)CCCN3CCN(c4ccccc4Cl)CC3)ccc2N1	500 mg/kg
O=c1[nH]c2cc(Cl)c(Br)cc2o1	500 mg/kg
O=C(O)c1snc(Cl)c1Cl	1200 mg/kg
Nc1ccc(Br)cc1	456 mg/kg
O=C(O)c1cc(S(=O)(=O)O)ccc1O	1850 mg/kg
O=C(c1ccccc1)c1ccc(O)cc1O	8600 mg/kg
CCOC(=O)C(C)Oc1ccc(Oc2nc3ccc(Cl)cc3s2)cc1 (stereo not given)	907 mg/kg
N#CC(=O)c1cccc(Cl)c1Cl	50 mg/kg
Cc1cc(OC(=O)N(C)C)nn1C(=O)N(C)C	25 mg/kg
CCN(CC)c1cccc(OC(=O)NC)c1	91 mg/kg
c1ccc2sc(SNC3CCCCC3)nc2c1	5300 mg/kg
CN(SSC(C)(C)C)C(=O)ON=C1SC(C)(C)C(=O)N1C	299 mg/kg
NC(=O)N1CCC(c2ccccc2)CC1	790 mg/kg

Compound	LD50
Nc1ccc(S(=O)(=O)O)c(N)c1	3480 mg/kg
NS(=O)(=O)c1cc(Cl)c(Cl)c(S(N)(=O)=O)c1	10100 mg/kg
CC(C)CC(CCN(C(C)C)C(C)C)(C(N)=O)c1ccccn1 (stereo not given)	1100 mg/kg
CCC1(CC)Oc2cccc(OC(=O)NC)c2O1	46 mg/kg
CCC(C)N(C(=O)SCc1ccccc1)C(C)CC (stereo not given)	10000 mg/kg
CCOC(=O)C(SP(=O)(OC)SC)c1ccccc1 (stereo not given)	250 mg/kg
Nc1ccc2c(O)cc(S(=O)(=O)O)cc2c1	11500 mg/kg
Cc1[nH]c(=O)c(C#N)cc1-c1ccncc1	91 mg/kg
NCc1cc(O)no1	45 mg/kg
CCCCNC(=O)n1c(NC(=O)OC)nc2ccccc21	10000 mg/kg
CCCN(CCC)CCc1cccc2c1CC(=O)N2	396 mg/kg and 862 mg/kg
CCOC(=O)C(C)O (stereo not given)	8200 mg/kg
CCN(CCO)c1ccc(N=O)c(C)c1	336 mg/kg
CN1CCN(N=O)CC1	100 mg/kg
CCOC(=O)C(c1c(O)c2ccccc2oc1=O)c1c(O)c2ccccc2oc1=O	840 mg/kg
CCCc1ccc(C=O)cc1	1600 mg/kg
CC(C)OP(O)(=S)OC(C)C	20200 mg/kg
ClCCC(Cl)(Cl)Cl	490 mg/kg
CCCCOC(=O)CC(C(=O)OCCCC)P(=O)(OCCCC)OCCCC (stereo not given)	25000 mg/kg
CNC(=O)O/N=C/C(C)(C)S(C)=O (stereo not given)	0.49 mg/kg
O=Cc1cccc(Br)c1	1130 mg/kg
CCCCOCC(C)OCC(C)OCC(C)O (stereo not given)	1840 mg/kg
CC(C)CNC(=O)OCC(O)C1COc2ccccc2O1 (stereo not given)	1500 mg/kg
COc1cccc(C2(O)CCCCC2CN(C)C)c1 (stereo not given)	228 mg/kg
FC(F)(F)c1cccc(OCC2CNC(=S)O2)c1 (stereo not given)	524 mg/kg
